# Where no end group is shown, it is not given here.
# How the values were obtained:
# [1] = target: T1, human phospholipase A2, content of tears (P14555) (Homo sapiens, UniProt P14555); experiment: Activity of human tear phospholipase A2 towards C28-O-PHPM in the presence of peptide (pyrene monomer fluorescence); assay type: biochemical; details: 2 nM enzyme, 40 nM or 80 nM peptide; FIG. 2
# T1 construct: Reaction mixture contained 2 nM of phospholipase of human tears; from tissue; host or cells: human tear fluid
# T1 sequence (P14555 21-144): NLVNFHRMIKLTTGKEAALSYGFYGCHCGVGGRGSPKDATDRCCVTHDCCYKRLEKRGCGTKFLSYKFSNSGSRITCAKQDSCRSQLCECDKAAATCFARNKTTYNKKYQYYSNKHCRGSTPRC
# Procedure: Activity of secretory phospholipase A2 (Apis mellifica) of class III towards C28—O—PHPM was measured in the presence of peptide KMYFNLI (SEQ ID NO:1). Reaction mixture contained 2 nM of phospholipase A2, 2 nM or 4 nM of the peptide and 1.25 μM C28—O—PHPM (1-octacosanyl-2-(6-pyren-1-yl)hexanoyl-sn-glycero-3-phosphatidylmethanol) in 2.0 ml of 5 mM HEPES, 0.1 mM EDTA, 1 mM CaCl2, pH 7.4 at 37° C. with stirring. The assay was performed with or without preincubation step. The enzymatic reaction was followed by measuring the pyrene monomer fluorescence intensity at 400 nm using a spectrofluorometer. Excitation wavelength was 343 nm and the excitation and emission slits were 10 nm.
# Activity of human phospholipase A2, content of tears (P14555), was measured in the presence of peptide AALSYGFYG (SEQ ID NO:68). Reaction mixture contained 2 nM of phospholipase of human tears, 40 nM or 80 nM of the peptide and 1.25 μM C28—O—PHPM (1-octacosanyl-2-(6-pyren-1-yl)hexanoyl-sn-glycero-3-phosphatidylmethanol) in 2.0 ml of 5 mM HEPES, 0.1 mM EDTA, 1 mM CaCl2, pH 7.4 at 37° C. with stirring. The assay was performed with or without preincubation step. The enzymatic reaction was followed as described in Example 2.
# [2] = target: secretory phospholipase A2 (Apis mellifica) of class III (Apis mellifera, UniProt P00630)
# Chain of secretory phospholipase A2 (Apis mellifica) of class III (P00630 34-167 limits assumed): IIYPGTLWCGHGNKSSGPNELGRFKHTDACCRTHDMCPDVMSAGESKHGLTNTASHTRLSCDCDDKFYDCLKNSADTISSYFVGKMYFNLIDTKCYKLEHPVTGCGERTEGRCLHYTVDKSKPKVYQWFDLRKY
Substance,inhibition of tear fluid PLA2 activity [1],inhibition of bee venom PLA2 enzyme [2],peptide concentration at which inhibition was observed [2]
AALSYGFYG (not fully specified (C-terminus); listed as Homo sapiens) [synthetic peptide corresponding to residues 17-25 of human secretory PLA2 present in tear fluid],inhibited,–,–
KMYFNLI,–,complete inhibition,2 nM
